Laboratory results published in the supplement of paper PMC10331698.
± gives the standard deviation of the averaged measurements.

Key:
Experiment in all cases: level (log10 ratio to DMSO vehicle control); higher = higher biomarker level / cell amount than vehicle control
Settings in all cases: in DMSO
[1] = compound: OCC(F)(F)C(F)(F)C(F)(F)C(F)(F)C(F)(F)C(F)F [1H,1H,7H-Dodecafluoro-1-heptanol]
Description: (§1)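 BioMAP Diversity Plus panel of 12 human primary cell co-culture systems (3C, 4H, LPS, SAg, BT, BF4T, BE3C, CASM3C, HDF3CGF, KF3CT, MyoF, Mphg). Compounds were added 1 h before stimulation and left for 24 h (MyoF 48 h; BT 72 h for soluble read-outs or 6 d for IgG). Biomarkers were read by ELISA, cytotoxicity by SRB, PBMC viability and proliferation by Alamar Blue. Each well value was divided by the mean of 8 DMSO control wells on the same plate and log10 transformed; duplicate blinded samples were tested at 4 concentrations.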

[2] = compound: O=C(O)C(F)(F)C(F)(F)C(F)(F)C(F)(F)C(F)(F)F [Perfluorohexanoic acid]
Description: as §1

[3] = compound: N=C(N)C(F)(F)C(F)(F)C(F)(F)C(F)(F)C(F)(F)C(F)(F)C(F)(F)F [Perfluorooctanamidine]
Description: as §1

[4] = compound: O=C(O)CCC(F)(F)C(F)(F)C(F)(F)F [3:3 Fluorotelomer carboxylic acid]
Description: as §1

Test System	level (log10) ([1]; 6700 nM)	level (log10) ([1]; 20000 nM)	level (log10) ([1]; 60000 nM)	level (log10) ([2]; 6700 nM)	level (log10) ([2]; 20000 nM)	level (log10) ([2]; 60000 nM)	level (log10) ([3]; 6700 nM)	level (log10) ([3]; 20000 nM)	level (log10) ([3]; 60000 nM)	level (log10) ([4]; 6700 nM)	level (log10) ([4]; 20000 nM)	level (log10) ([4]; 60000 nM)
HDF3CGF:EGFR	-0.004 ± 0.025	-0.015 ± 0.03	0.0075 ± 0.011	0.027 ± 0.017	0.03 ± 0.021	0.003 ± 0.081	-0.017 ± 0.02	0.01 ± 0.011	-0.013	-0.023 ± 0.018	-0.012 ± 0.024	-0.003 ± 0.045
3C:CD142/Tissue Factor	0.001 ± 0.0057	0.017 ± 0.041	0.001 ± 0.05	0.011 ± 0.0085	-0.0135 ± 0.0092	0.0005 ± 0.012	-0.02 ± 0.018	-0.0105 ± 0.012	-0.014	-0.024 ± 0.0014	0.0015 ± 0.0078	0.0275 ± 0.011
lMphg:SRB-Mphg	-0.028 ± 0.095	-0.046 ± 0.0085	0.0615 ± 0.052	-0.0005 ± 0.011	0.003 ± 0.0071	0.0115 ± 0.0035	0.0145 ± 0.011	0.009 ± 0.014	0.007	-0.019 ± 0.13	-0.047 ± 0.1	-0.048 ± 0.12
KF3CT:SRB	-0.0025 ± 0.0064	-0.001 ± 0.0042	0.002 ± 0.0085	0.0045 ± 0.0035	-0.012 ± 0.0014	0.0045 ± 0.00071	-0.001 ± 0.0014	-0.004 ± 0.0014	0.027	-0.0085 ± 0.00071	-0.004 ± 0.0042	0.0015 ± 0.018
CASM3C:CCL2/MCP-1	-0.0065 ± 0.013	-0.017 ± 0.02	-0.008 ± 0.033	-0.014 ± 0.0042	0.0025 ± 0.021	0.008 ± 0.027	0.008 ± 0.024	0.011 ± 0.034	0.085	-0.011 ± 0.021	-0.015 ± 0.0028	-0.0135 ± 0.022
3C:CD54/ICAM-1	-0.009 ± 0.011	-0.003 ± 0.0099	-0.0055 ± 0.0021	0.005 ± 0.013	-0.0045 ± 0.016	-0.0005 ± 0.019	-0.0065 ± 0.0035	-0.038 ± 0.013	-0.049	-0.019 ± 0.0099	-0.009 ± 0.023	-0.0015 ± 0.023
HDF3CGF:CXCL11/I-TAC	0.011 ± 0.0028	0 ± 0.018	-0.0015 ± 0.011	0.0045 ± 0.005	0.0005 ± 0.021	-0.021 ± 0.031	0.024 ± 0.025	0.0285 ± 0.029	-0.119	0.0025 ± 0.0092	-0.0065 ± 0.0078	0.012 ± 0.035
KF3CT:uPA	0.001 ± 0.011	-0.0155 ± 0.013	0.0035 ± 0.015	0.0125 ± 0.0064	-0.004 ± 0.0085	0.016 ± 0.0099	0.0015 ± 0.0021	0.0165 ± 0.0035	0.01	-0.01 ± 0.017	-0.0165 ± 0.0092	-0.009 ± 0.0014
HDF3CGF:PAI-I	-0.008 ± 0.0085	-0.004 ± 0.02	0.006 ± 0.047	0.0415 ± 0.044	-0.0095 ± 0.021	0.025 ± 0.075	-0.0225 ± 0.013	0.02 ± 0.014	-0.233	-0.006 ± 0.031	-0.0035 ± 0.023	0.0085 ± 0.005
MyoF:Collagen I	0.0055 ± 0.012	-0.0175 ± 0.018	0.003 ± 0.023	-0.01 ± 0.0057	-0.0095 ± 0.0092	-0.0025 ± 0.011	-0.0005 ± 0.013	0.007 ± 0.0085	0.047	-0.0005 ± 0.037	0.0095 ± 0.0035	0.0255 ± 0.026
CASM3C:CXCL8/IL-8	0.0055 ± 0.012	0.005 ± 0.013	0.0055 ± 0.00071	0.0005 ± 0.021	0.007 ± 0.0099	0.0265 ± 0.028	0.011 ± 0.017	0.0075 ± 0.0092	0.053	-0.0025 ± 0.0021	-0.008 ± 0.0014	0.0085 ± 0.022
lMphg:CD62E/E-Selectin	-0.0295 ± 0.025	-0.0265 ± 0.0035	0.001 ± 0.048	0.0025 ± 0.016	0 ± 0.0014	-0.014 ± 0.0042	0.0065 ± 0.042	0.0655 ± 0.015	0.049	0.014 ± 0.025	0.028 ± 0.023	0.0435 ± 0.023
BE3C:uPA	-0.0055 ± 0.032	-0.004 ± 0.027	-0.0055 ± 0.0035	-0.03 ± 0.013	-0.01 ± 0.018	0.0025 ± 0.016	-0.008 ± 0.011	-0.0095 ± 0.0078	0.004	-0.0045 ± 0.023	-0.018 ± 0.017	-0.0115 ± 0.0021
MyoF:Collagen III	-0.0095 ± 0.0035	-0.012	-0.015 ± 0.0071	0.0075 ± 0.012	0.003 ± 0.02	0.0105 ± 0.0092	-0.0045 ± 0.015	0.003 ± 0.017	0.006	-0.0125 ± 0.005	-0.005 ± 0.011	-0.0145 ± 0.0064
KF3CT:CD54/ICAM-1	-0.002 ± 0.016	-0.0115 ± 0.0064	0.003 ± 0.017	0.0055 ± 0.0064	-0.002 ± 0.013	-0.007 ± 0.011	0.0055 ± 0.033	0.0175 ± 0.022	0.064	-0.0055 ± 0.0092	-0.008 ± 0.0014	0.001 ± 0.028
